IC50 data for 21 molecules are collected here from patent publication US10981911B2, “Imidazopyrrolopyridine as inhibitors of the JAK family of kinases” (Janssen Pharmaceutica NV, priority 2016, dated 2021).

Holding throughout (type): biochemical
One assay addresses JAK3-JH1JH2 (Homo sapiens (Human), UniProt P52333). The assay is described as follows: Enzymatic inhibition assay (RapidFire HTMS), JAK3. Particulars: 150 μM ATP, 40 μM substrate. The procedure, abridged:
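Compounds tested in duplicate over 11-point 1:3 or 1:4 dilution series; no-enzyme wells as negative control. After 45 min at 25 °C, TFA quench with internal standard, and phosphorylated product quantified by RapidFire–QTrap mass spectrometry relative to the uninhibited reaction.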

In a further assay the target is JAK2-JH1JH2 (Homo sapiens (Human), UniProt O60674). The assay is described as follows: Enzymatic inhibition assay (RapidFire HTMS), JAK2. Particulars: 30 μM ATP, 40 μM substrate. The procedure, abridged: (§1)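 Quenched with 0.5% TFA plus internal-standard peptide; phosphorylated product quantified by RapidFire C4 SPE–ESI-MS, 11-point 1:3 or 1:4 dilutions in duplicate.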
Chain of JAK2-JH1JH2 (O60674 532-1132): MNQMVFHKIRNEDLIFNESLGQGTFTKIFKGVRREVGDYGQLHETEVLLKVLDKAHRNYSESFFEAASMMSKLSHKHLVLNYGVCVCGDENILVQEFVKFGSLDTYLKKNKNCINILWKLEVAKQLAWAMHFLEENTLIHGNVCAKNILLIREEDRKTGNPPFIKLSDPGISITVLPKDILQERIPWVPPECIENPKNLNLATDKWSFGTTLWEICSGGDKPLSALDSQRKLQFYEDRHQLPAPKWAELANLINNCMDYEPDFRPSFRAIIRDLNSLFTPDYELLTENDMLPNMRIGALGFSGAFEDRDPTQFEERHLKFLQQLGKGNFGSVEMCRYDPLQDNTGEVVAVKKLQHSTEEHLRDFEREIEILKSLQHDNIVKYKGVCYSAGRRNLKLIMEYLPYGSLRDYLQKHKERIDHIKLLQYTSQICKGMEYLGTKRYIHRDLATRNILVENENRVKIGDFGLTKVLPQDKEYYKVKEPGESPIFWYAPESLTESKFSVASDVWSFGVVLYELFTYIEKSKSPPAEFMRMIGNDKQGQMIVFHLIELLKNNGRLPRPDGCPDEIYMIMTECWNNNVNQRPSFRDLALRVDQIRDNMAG

Another assay concerns the target JAK1-JH1JH2 (Homo sapiens (Human), UniProt P23458). Put plainly: Enzymatic inhibition assay (RapidFire HTMS), JAK1. As to conditions: 12.5 μM ATP, 200 μM substrate; read-out: JAK1-JH2JH1 IC50. The procedure, abridged:
as §1

The target in a further assay is Tyk2-JH1JH2 (Homo sapiens (Human), UniProt P29597, C1142A/C936A). The assay is described as follows: Enzymatic inhibition assay (RapidFire HTMS), Tyk2. As to conditions: 50 μM ATP, 200 μM substrate. The method, boiled down: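 Compounds were tested in duplicate as 11-point 1:3 or 1:4 DMSO dilutions (≤0.25% DMSO final) in 20 μL reactions at 25 °C for 90 min, with Tyk2 pre-incubated 30 min with 2 mM ATP. Reactions were quenched with TFA plus internal standard peptide, and phosphorylated product was quantified by RapidFire C4 SPE–ESI MS.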
Chain of Tyk2-JH1JH2 (P29597 580-1182 C936A/C1142A): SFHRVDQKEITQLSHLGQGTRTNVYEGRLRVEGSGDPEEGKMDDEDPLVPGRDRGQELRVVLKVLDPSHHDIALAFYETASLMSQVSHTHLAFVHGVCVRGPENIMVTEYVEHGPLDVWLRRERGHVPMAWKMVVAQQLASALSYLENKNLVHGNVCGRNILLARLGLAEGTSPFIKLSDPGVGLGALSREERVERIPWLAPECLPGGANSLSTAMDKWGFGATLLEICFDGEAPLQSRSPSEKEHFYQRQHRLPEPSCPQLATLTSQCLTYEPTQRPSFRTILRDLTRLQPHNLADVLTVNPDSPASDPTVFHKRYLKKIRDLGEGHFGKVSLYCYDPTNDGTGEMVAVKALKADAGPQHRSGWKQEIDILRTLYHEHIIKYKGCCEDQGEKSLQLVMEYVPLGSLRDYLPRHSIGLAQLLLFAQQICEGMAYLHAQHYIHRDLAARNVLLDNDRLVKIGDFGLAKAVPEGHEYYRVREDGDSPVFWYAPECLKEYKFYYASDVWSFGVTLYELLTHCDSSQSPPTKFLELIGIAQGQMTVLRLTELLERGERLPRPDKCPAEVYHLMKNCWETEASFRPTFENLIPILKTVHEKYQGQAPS

Chain of JAK1-JH1JH2 (P23458 574-1154): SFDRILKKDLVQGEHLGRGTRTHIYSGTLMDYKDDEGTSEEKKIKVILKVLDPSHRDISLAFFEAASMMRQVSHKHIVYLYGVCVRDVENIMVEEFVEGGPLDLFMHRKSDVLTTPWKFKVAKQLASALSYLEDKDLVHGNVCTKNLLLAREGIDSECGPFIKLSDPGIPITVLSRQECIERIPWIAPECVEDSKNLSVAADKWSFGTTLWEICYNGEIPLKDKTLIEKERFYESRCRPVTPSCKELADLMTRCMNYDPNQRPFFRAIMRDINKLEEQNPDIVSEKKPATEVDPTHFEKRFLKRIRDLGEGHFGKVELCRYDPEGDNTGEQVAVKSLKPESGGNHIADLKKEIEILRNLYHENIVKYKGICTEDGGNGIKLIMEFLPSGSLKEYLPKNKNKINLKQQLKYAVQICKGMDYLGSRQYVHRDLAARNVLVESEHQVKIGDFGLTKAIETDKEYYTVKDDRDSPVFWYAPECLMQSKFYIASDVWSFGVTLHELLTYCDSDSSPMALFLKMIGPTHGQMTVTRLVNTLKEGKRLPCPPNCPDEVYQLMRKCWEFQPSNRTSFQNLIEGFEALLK
Chain of JAK3-JH1JH2 (P52333 512-1124): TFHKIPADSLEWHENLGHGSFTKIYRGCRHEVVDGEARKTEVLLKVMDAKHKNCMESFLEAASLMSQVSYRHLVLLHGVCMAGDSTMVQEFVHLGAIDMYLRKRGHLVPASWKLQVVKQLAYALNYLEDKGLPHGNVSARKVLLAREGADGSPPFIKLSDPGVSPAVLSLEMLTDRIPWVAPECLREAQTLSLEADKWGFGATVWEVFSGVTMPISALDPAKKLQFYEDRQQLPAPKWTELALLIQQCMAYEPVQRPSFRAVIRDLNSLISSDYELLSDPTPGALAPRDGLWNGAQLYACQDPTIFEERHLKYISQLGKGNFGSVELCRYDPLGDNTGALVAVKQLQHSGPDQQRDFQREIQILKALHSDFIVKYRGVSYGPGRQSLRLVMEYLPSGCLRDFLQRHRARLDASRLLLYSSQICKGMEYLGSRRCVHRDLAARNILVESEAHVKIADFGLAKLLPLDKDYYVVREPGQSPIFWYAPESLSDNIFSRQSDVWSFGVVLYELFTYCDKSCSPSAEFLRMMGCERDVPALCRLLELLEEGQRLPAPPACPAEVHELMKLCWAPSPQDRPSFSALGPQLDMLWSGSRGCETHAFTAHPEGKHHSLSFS

The IC50 is the concentration that gives 50% inhibition. As for `COCC(C)NC(=O)c1nc2cnc3[nH]ccc3c2n1[C@H]1CC[C@H](CC#N)CC1` (stereo partly drawn) [Ex. 179, 1-((1r,4r)-4-(Cyanomethyl)cyclohexyl)-N-(1-methoxypropan-2-yl)-1,6-dihydroimidazo[4,5-d]pyrrolo[2,3-b]pyridine-2-carboxamide], the 50% inhibitory concentration (IC50) was 641 nM on JAK3-JH1JH2, 20.9 nM against JAK2-JH1JH2, 1.4 nM on JAK1-JH1JH2 and 30 nM against Tyk2-JH1JH2.

On to `N#CC[C@H]1CC[C@H](n2c(C(=O)N3CCOCC3)nc3cnc4[nH]ccc4c32)CC1` [Ex. 180, 2-((1r,4r)-4-(2-(Morpholine-4-carbonyl)imidazo[4,5-d]pyrrolo[2,3-b]pyridin-1(6H)-yl)cyclohexyl)acetonitrile], for which the IC50 worked out at 2290 nM against JAK3-JH1JH2, 149 nM against JAK2-JH1JH2, 3.4 nM on JAK1-JH1JH2 and 129 nM against Tyk2-JH1JH2.

In the case of `N#CC[C@H]1CC[C@H](n2c(C(=O)N3CCC(O)CC3)nc3cnc4[nH]ccc4c32)CC1` [Ex. 181, 2-((1r,4r)-4-(2-(4-Hydroxypiperidine-1-carbonyl)imidazo[4,5-d]pyrrolo[2,3-b]pyridin-1(6H)-yl)cyclohexyl)acetonitrile], the IC50 against JAK3-JH1JH2 stood at 6300 nM; against JAK2-JH1JH2, 331 nM; at JAK1-JH1JH2 it was 5.4 nM; against Tyk2-JH1JH2, 159 nM.

In the case of `CCOC(=O)Cn1cc(-c2nc3cnc4[nH]ccc4c3n2[C@H]2CC[C@H](CC#N)CC2)cn1` [Ex. 182, Ethyl 2-(4-(1-((1r,4r)-4-(cyanomethyl)cyclohexyl)-1,6-dihydroimidazo[4,5-d]pyrrolo[2,3-b]pyridin-2-yl)-1H-pyrazol-1-yl)acetate], the IC50 came out at 276 nM on JAK3-JH1JH2, 24.3 nM against JAK2-JH1JH2, 2.8 nM at JAK1-JH1JH2 and 52.5 nM against Tyk2-JH1JH2.

For the molecule `Cc1nc(C)c(-c2nc3cnc4[nH]ccc4c3n2[C@H]2CC[C@H](CC#N)CC2)o1` [Ex. 183, 2-((1r,4r)-4-(2-(2,4-dimethyloxazol-5-yl)imidazo[4,5-d]pyrrolo[2,3-b]pyridin-1(6H)-yl)cyclohexyl)acetonitrile], the IC50 is 645 nM on JAK3-JH1JH2, 52.9 nM against JAK2-JH1JH2, 4.3 nM at JAK1-JH1JH2 and 118 nM against Tyk2-JH1JH2.

`Cc1nc(C)c(-c2nc3cnc4[nH]ccc4c3n2[C@H]2CC[C@H](CC#N)CC2)s1` [Ex. 184, 2-((1r,4r)-4-(2-(2,4-dimethylthiazol-5-yl)imidazo[4,5-d]pyrrolo[2,3-b]pyridin-1(6H)-yl)cyclohexyl)acetonitrile]: the half-inhibitory concentration (IC50) at JAK3-JH1JH2 was determined as 1230 nM; against JAK2-JH1JH2 it was 230 nM; at JAK1-JH1JH2, 25.5 nM; against Tyk2-JH1JH2, 319 nM.

As for `N#CC[C@H]1CC[C@H](n2c(-c3cnn(CC(=O)NC4CC4)c3)nc3cnc4[nH]ccc4c32)CC1` [Ex. 185, 2-(4-(1-((1r,4r)-4-(Cyanomethyl)cyclohexyl)-1,6-dihydroimidazo[4,5-d]pyrrolo[2,3-b]pyridin-2-yl)-1H-pyrazol-1-yl)-N-cyclopropylacetamide], the IC50 stood at 150 nM against JAK3-JH1JH2, 19.8 nM against JAK2-JH1JH2, 2.1 nM at JAK1-JH1JH2 and 36.4 nM on Tyk2-JH1JH2.

Regarding `N#CC[C@H]1CC[C@H](n2c(-c3cccnc3N)nc3cnc4[nH]ccc4c32)CC1` [Ex. 186, 2-((1r,4r)-4-(2-(2-aminopyridin-3-yl)imidazo[4,5-d]pyrrolo[2,3-b]pyridin-1(6H)-yl)cyclohexyl)acetonitrile], the concentration for half-maximal inhibition (IC50) was found to be 4650 nM against JAK3-JH1JH2, 82.2 nM on JAK2-JH1JH2, 3.7 nM at JAK1-JH1JH2 and 254 nM on Tyk2-JH1JH2.

Take `CC(C)(O)Cn1cc(-c2nc3cnc4[nH]ccc4c3n2[C@H]2CC[C@H](CC#N)CC2)cn1` [Ex. 187, 2-((1r,4r)-4-(2-(1-(2-Hydroxy-2-methylpropyl)-1H-pyrazol-4-yl)imidazo[4,5-d]pyrrolo[2,3-b]pyridin-1(6H)-yl)cyclohexyl)acetonitrile]: the half-inhibitory concentration (IC50) against JAK3-JH1JH2 is 180 nM; at JAK2-JH1JH2 it was 24.6 nM; at JAK1-JH1JH2 it was 1.3 nM; against Tyk2-JH1JH2, 60 nM.

`CC(C)(O)CNC(=O)Cc1nc2cnc3[nH]cc(Cl)c3c2n1[C@H]1CC[C@H](CC#N)CC1` [Ex. 188, 2-(8-chloro-1-((1r,4r)-4-(cyanomethyl)cyclohexyl)-1,6-dihydroimidazo[4,5-d]pyrrolo[2,3-b]pyridin-2-yl)-N-(2-hydroxy-2-methylpropyl)acetamide]: the half-inhibitory concentration (IC50) against JAK3-JH1JH2 was determined as 13.1 nM; against JAK2-JH1JH2, 36.7 nM; at JAK1-JH1JH2 it was 3.2 nM; on Tyk2-JH1JH2, 122 nM.

`CC(C)(O)CNC(=O)Cc1nc2cnc3[nH]cc(Br)c3c2n1[C@H]1CC[C@H](CC#N)CC1` [Ex. 189, 2-(8-bromo-1-((1r,4r)-4-(cyanomethyl)cyclohexyl)-1,6-dihydroimidazo[4,5-d]pyrrolo[2,3-b]pyridin-2-yl)-N-(2-hydroxy-2-methylpropyl)acetamide]: the IC50 at JAK3-JH1JH2 amounted to 16.6 nM; on JAK2-JH1JH2, 42.3 nM; on JAK1-JH1JH2 it was 3.4 nM; on Tyk2-JH1JH2, 182 nM.

Regarding `Cc1c[nH]c2ncc3nc(CC(=O)NCC(C)(C)O)n([C@H]4CC[C@H](CC#N)CC4)c3c12` [Ex. 190, 2-(1-((1r,4r)-4-(cyanomethyl)cyclohexyl)-8-methyl-1,6-dihydroimidazo[4,5-d]pyrrolo[2,3-b]pyridin-2-yl)-N-(2-hydroxy-2-methylpropyl)acetamide], the IC50 on JAK3-JH1JH2 came to 102 nM; at JAK2-JH1JH2, 150 nM; on JAK1-JH1JH2, 12.4 nM; on Tyk2-JH1JH2, 458 nM.

As to `Cc1cc2c(ncc3nc(CC(=O)NCC(C)(C)O)n([C@H]4CC[C@H](CC#N)CC4)c32)[nH]1` [Ex. 191, 2-(1-((1r,4r)-4-(Cyanomethyl)cyclohexyl)-7-methyl-1,6-dihydroimidazo[4,5-d]pyrrolo[2,3-b]pyridin-2-yl)-N-(2-hydroxy-2-methylpropyl)acetamide], the half-inhibitory concentration (IC50) at JAK3-JH1JH2 came out at 1340 nM; against JAK2-JH1JH2, 57.3 nM; on JAK1-JH1JH2, 1.3 nM; on Tyk2-JH1JH2, 20.6 nM.

Turning to `COCCOCCOCCOCCc1nc2cnc3[nH]ccc3c2n1[C@H]1CC[C@H](CC#N)CC1` [Ex. 192, 2-((1r,4r)-4-(2-(2,5,8,11-Tetraoxatridecan-13-yl)imidazo[4,5-d]pyrrolo[2,3-b]pyridin-1(6H)-yl)cyclohexyl)acetonitrile], the IC50 on JAK3-JH1JH2 turned out to be 1120 nM; on JAK2-JH1JH2, 69 nM; at JAK1-JH1JH2, 1 nM; against Tyk2-JH1JH2, 25.8 nM.

With `N#CC[C@H]1CC[C@H](n2c(CC(=O)NCCOCCOCCN)nc3cnc4[nH]ccc4c32)CC1` [Ex. 193, N-(2-(2-(2-Aminoethoxy)ethoxy)ethyl)-2-(1-((1r,4r)-4-(cyanomethyl)cyclohexyl)-1,6-dihydroimidazo[4,5-d]pyrrolo[2,3-b]pyridin-2-yl)acetamide], the concentration for half-maximal inhibition (IC50) at JAK3-JH1JH2 was found to be 69.5 nM; against JAK2-JH1JH2, 10.1 nM; on JAK1-JH1JH2 it was 0.2 nM; on Tyk2-JH1JH2, 5.3 nM.

On to `COCCOCCOCc1nc2cnc3[nH]ccc3c2n1[C@H]1CC[C@H](CC#N)CC1` [Ex. 194, 2-((1r,4r)-4-(2-((2-(2-methoxyethoxy)ethoxy)methyl)imidazo[4,5-d]pyrrolo[2,3-b]pyridin-1(6H)-yl)cyclohexyl)acetonitrile], for which the IC50 against JAK3-JH1JH2 came to 1460 nM; against JAK2-JH1JH2 it was 133 nM; on JAK1-JH1JH2, 9.4 nM; on Tyk2-JH1JH2, 72.5 nM.

Regarding `N#CC[C@H]1CC[C@H](n2c(CC(=O)N3CCC[C@H]3CO)nc3cnc4[nH]ccc4c32)CC1` [Ex. 195, 2-((1S,4r)-4-(2-(2-((S)-2-(hydroxymethyl)pyrrolidin-1-yl)-2-oxoethyl)imidazo[4,5-d]pyrrolo[2,3-b]pyridin-1(6H)-yl)cyclohexyl)acetonitrile], the IC50 against JAK3-JH1JH2 stood at 294 nM; on JAK2-JH1JH2, 33.7 nM; at JAK1-JH1JH2, 3.3 nM; at Tyk2-JH1JH2 it was 11 nM.

As to `N#CC[C@H]1CC[C@H](n2c(COC(=O)NC34CC5CC(CC(C5)C3)C4)nc3cnc4[nH]ccc4c32)CC1` [Ex. 196, (1-((1r,4r)-4-(Cyanomethyl)cyclohexyl)-1,6-dihydroimidazo[4,5-d]pyrrolo[2,3-b]pyridin-2-yl)methyl (3S,5S,7S)-adamantan-1-ylcarbamate], the 50% inhibitory concentration (IC50) came out at 660 nM against JAK3-JH1JH2, 41.4 nM at JAK2-JH1JH2, 3.4 nM at JAK1-JH1JH2 and 41.8 nM against Tyk2-JH1JH2.

On to `COC1CCN(C(=O)Cc2nc3cnc4[nH]ccc4c3n2[C@H]2CC[C@H](CC#N)CC2)CC1` [Ex. 197, 2-((1r,4r)-4-(2-(2-(4-Methoxypiperidin-1-yl)-2-oxoethyl)imidazo[4,5-d]pyrrolo[2,3-b]pyridin-1(6H)-yl)cyclohexyl)acetonitrile], for which the IC50 on JAK3-JH1JH2 was 132 nM; on JAK2-JH1JH2, 15.5 nM; at JAK1-JH1JH2, less than 4 nM; against Tyk2-JH1JH2 it was 6.2 nM.

As to `CNC(=O)Cc1nc2cnc3[nH]ccc3c2n1[C@H]1CC[C@H](CC#N)CC1` [Ex. 198, 2-(1-((1r,4r)-4-(Cyanomethyl)cyclohexyl)-1,6-dihydroimidazo[4,5-d]pyrrolo[2,3-b]pyridin-2-yl)-N-methylacetamide], the IC50 on JAK3-JH1JH2 is 24.4 nM; on JAK2-JH1JH2, 2.1 nM; on JAK1-JH1JH2, less than 4 nM; at Tyk2-JH1JH2, 1.2 nM.

On to `N#CC[C@H]1CC[C@H](n2c(CC(=O)NCC34CC5CC(CC(C5)C3)C4)nc3cnc4[nH]ccc4c32)CC1` [Ex. 199, N-((3R,5R,7R)-Adamantan-1-ylmethyl)-2-(1-((1r,4r)-4-(cyanomethyl)cyclohexyl)-1,6-dihydroimidazo[4,5-d]pyrrolo[2,3-b]pyridin-2-yl)acetamide], for which the IC50 against JAK3-JH1JH2 is 109 nM; on JAK2-JH1JH2, 3.6 nM; at JAK1-JH1JH2 it was less than 4 nM; on Tyk2-JH1JH2 it was 7.9 nM.
